Measurements published in PMC11003683, “Pyrrole-based inhibitors of RND-type efflux pumps reverse antibiotic resistance and display anti-virulence potential” (PLOS Pathogens, 2024).
Converted amounts (≈) assume the structure as drawn. Like-named read-outs stand apart in the source and are kept apart here.

What was measured:
[1] = in vitro; design: species or system H-PBMC; MTT viability assay, absorbance at 570 nm, cytotoxicity IC50; conditions: human, pbmc; read-out: IC50
Protocol: (§1) The cytotoxicity assay was performed on Human Peripheral Blood Mononuclear cells (H-PBMC, Himedia, India) according to the manufacturer’s instructions. The H-PBMC (40,000 cells/well in 100 μL volume) suspension in RPMI-1640 media (containing 10% fetal bovine serum and 50 U/mL antibiotic-antimycotic solution) (Himedia^, India) was dispensed into 96-well polystyrene tissue culture-treated flat-bottom plates (Corning, U.S.). The plates were incubated for 48 h in a CO2 (5%) incubator at 37°C. After 48 h, the compounds (Ar1-Ar24) were added to the plates in a fresh medium and again incubated for 24 h in a CO2 (5%) incubator at 37°C. Next, MTT (1 mg/mL) was added to the wells, followed by incubation for 4–5 h. The formazan crystals were solubilized using a solubilizing solution (40% (v/v) dimethyl formamide in 2% (v/v) glacial acetic acid added with 16% sodium dodecyl sulfate), and the absorbance (OD570nm) was measured. Considering the lack of effect of EPIs on eukaryotic Ca^2+ ion channels, we further evaluated cytotoxicity on Human Peripheral Blood Mononuclear cells (H-PBMC). […] Our front runners, Ar1, Ar5, and Ar11, had extremely low toxicity toward H-PBMCs. […] Taken together, these experiments provide substantial evidence that Ar5 is non-toxic in vitro and can be used for therapeutic applications in vivo.

[2] = in vitro; design: MTT viability assay on human PBMCs, absorbance at 570 nm; conditions: human, pbmc; 24 h exposure, MTT; read-out: IC50
Protocol: as §1

[3] = tested on: T1, Klebsiella pneumoniae ATCC BAA-2782; assay: microbe, parasite or virus in culture; design: MIC of antibiotic alone from antibiotic potentiation assay against XDR strain; conditions: ATCCBAA2782, read-out: MIC (μg/mL) / Klebsiella pneumoniae ATCC BAA-2782
T1 construct: ATCC BAA-2782
Excerpt: (§2) We further tested the potentiation of Ar1, Ar5, Ar11, and Ar18 to RND efflux pump substrates (ciprofloxacin, levofloxacin, tetracycline, tigecycline, erythromycin, piperacillin, and chloramphenicol) against XDR E. coli ATCC BAA-2774 (expressing AcrAB-TolC), K. pneumoniae ATCC BAA-2782 (expressing AcrAB-TolC), and P. aeruginosa ATCC BAA-2795 (expressing MexAB-OprM). […] The fact that compounds potentiate a given antibiotic against efflux pump over-expressed strain but not deletion provides substantial evidence that the inhibition effect is RND efflux pump specific targeting AcrAB and MexAB efflux systems. The antibiotics, chemicals, and dyes were purchased from Sigma-Aldrich Chemical Co. (St. Louis, MO, United States) unless stated otherwise. The E. coli wild-type K-12 AG100 (argE3 thi-1 rpsLxylmtlΔ(gal-uvrB)supE44) and its derivatives, AcrB over-expressing AG100tet and AcrAB knockout AG100A (ΔacrAB::Tn903 Kan^r) were used in the study. AG100tet is derived from AG100 by gradual stepwise exposure to increased concentrations of tetracycline and was grown in the presence of 8 μg/mL tetracycline to maintain efflux pump over-expression. AG100A was grown in the presence of 100 μg/mL kanamycin to preserve the transposon. The P. aeruginosa ATCC BAA-2795 over-expressing MexAB-OprM (Chromachemie, India), and PAO750 (PAO1: ΔmexAB-oprM, ΔmexCD-oprJ, ΔmexEF-oprN, ΔmexXY) were also used in the study. The strains P. aeruginosa ATCC 27853, P. aeruginosa ATCC 15692 (PAO1), K. Pneumoniae ATCC BAA-2782, K. Pneumoniae ATCC 700603, and E. coli ATCC BAA-2774, were purchased from Himedia, India. All the strains were grown in BBL Cation-adjusted Mueller Hinton Broth (CA-MHB; BD, U.S.) at 37°C under standard conditions. Mueller Hinton Agar (MHA; Himedia, India) plates were used for bacterial viability counting.

[4] = tested on: T2, Pseudomonas aeruginosa ATCC BAA-2795; assay: microbe, parasite or virus in culture; design: MIC of antibiotic alone from antibiotic potentiation assay against XDR strain; conditions: ATCC BAA-2782 / ATCC BAA-2795, read-out: MIC (μg/mL) / Klebsiella pneumoniae ATCC BAA-2782 / Pseudomonas aeruginosa ATCC BAA-2795
T2 construct: ATCC BAA-2795
Excerpt: as §2

[5] = tested on: T3, Escherichia coli ATCC BAA-2774; assay: microbe, parasite or virus in culture; design: MIC of antibiotic alone from antibiotic potentiation assay against XDR strain; conditions: ATCC BAA-2774 / ATCC BAA-2782, read-out: MIC (μg/mL) / Klebsiella pneumoniae ATCC BAA-2782 / Escherichia coli ATCC BAA-2774
T3 construct: ATCC BAA-2774
Excerpt: as §2

Compound `COC(=O)c1cc(-c2cccc(NC(C)=O)c2)cn1Cc1ccc(C)cc1` [Ar11] has a CC50 at 24 h [1] of over 256 µg/mL and a CC50 at 24 h [2] of over 256 µg/mL.

Work on `COC(=O)c1cc(-c2ccc(F)cc2)cn1Cc1ccc(F)cc1` [Ar1] yielded a CC50 at 24 h [1] of 256 µg/mL (≈ 782 µM) and a CC50 at 24 h [2] of 256 µg/mL (≈ 782 µM).

`CCOC(=O)c1cc(-c2ccc(F)cc2)c[nH]1` [Ar17] showed a CC50 at 24 h [1] of 256 µg/mL (≈ 1100 µM) and a CC50 at 24 h [2] of 256 µg/mL (≈ 1100 µM).

In the case of `CCOC(=O)c1cc(-c2ccc(C#N)cc2)cn1Cc1ccc(F)cc1` [Ar21], the CC50 at 24 h [1] was 256 µg/mL (≈ 735 µM) and the CC50 at 24 h [2] was 256 µg/mL (≈ 735 µM).

With `CCOC(=O)c1cc(-c2ccc(F)cc2F)cn1Cc1ccc(F)cc1` [Ar18] the CC50 at 24 h [1] was over 128 µg/mL and the CC50 at 24 h [2] was over 128 µg/mL.

`O=C(O)c1cn(C2CC2)c2cc(N3CCNCC3)c(F)cc2c1=O` [Ciprofloxacin] gave an MIC [3] of 128 µg/mL, an MIC [4] of 256 µg/mL and an MIC [5] of 256 µg/mL.

For `CCOC(=O)c1cc(-c2ccc(C(F)(F)F)cc2)cn1Cc1ccc(C)cc1` [Ar24], the CC50 at 24 h [1] was 256 µg/mL (≈ 661 µM) and the CC50 at 24 h [2] was 256 µg/mL (≈ 661 µM).

In the case of `CCN1CCN(C(=O)N[C@@H](C(=O)N[C@@H]2C(=O)N3[C@@H]2SC(C)(C)[C@@H]3C(=O)O)c2ccccc2)C(=O)C1=O` [Piperacillin], the MIC [3] was 1020 µg/mL, the MIC [4] was 256 µg/mL and the MIC [5] was 512 µg/mL.

Work on `CCOC(=O)c1cc(-c2ccc(C(F)(F)F)cc2)cn1Cc1ccc(F)cc1` [Ar16] yielded a CC50 at 24 h [1] of 256 µg/mL (≈ 654 µM) and a CC50 at 24 h [2] of 256 µg/mL (≈ 654 µM).

`CC[C@H]1OC(=O)[C@H](C)[C@@H](O[C@H]2C[C@@](C)(OC)[C@@H](O)[C@H](C)O2)[C@H](C)[C@@H](O[C@@H]2O[C@H](C)C[C@H](N(C)C)[C@H]2O)[C@](C)(O)C[C@@H](C)C(=O)[C@H](C)[C@@H](O)[C@]1(C)O` [Erythromycin] gave an MIC [3] of 128 µg/mL, an MIC [4] of 512 µg/mL and an MIC [5] of 512 µg/mL.

`CN(C)[C@@H]1C(O)=C(C(N)=O)C(=O)[C@@]2(O)C(O)=C3C(=O)c4c(O)cccc4[C@@](C)(O)[C@H]3C[C@@H]12` [Tetracycline] gave an MIC [3] of 4 µg/mL, an MIC [4] of 32 µg/mL and an MIC [5] of 256 µg/mL.

For `CN(C)c1cc(NC(=O)CNC(C)(C)C)c(O)c2c1C[C@H]1C[C@H]3[C@H](N(C)C)C(O)=C(C(N)=O)C(=O)[C@@]3(O)C(O)=C1C2=O` [Tigecycline], the MIC [3] was 64 µg/mL, the MIC [4] was 256 µg/mL and the MIC [5] was 128 µg/mL.

Compound `CCOC(=O)c1cc(-c2cccc(CO)c2)cn1Cc1ccc(F)cc1` [Ar20] has a CC50 at 24 h [1] of over 128 µg/mL and a CC50 at 24 h [2] of over 128 µg/mL.

Work on `O=C(N[C@H](CO)[C@H](O)c1ccc([N+](=O)[O-])cc1)C(Cl)Cl` [Chloramphenicol] yielded an MIC [3] of 16 µg/mL, an MIC [4] of 256 µg/mL and an MIC [5] of 32 µg/mL.

Work on `CCOC(=O)c1cc(-c2ccc(F)cn2)cn1Cc1ccc(F)cc1` [Ar19] yielded a CC50 at 24 h [1] of over 128 µg/mL and a CC50 at 24 h [2] of over 128 µg/mL.

For `C[C@H]1COc2c(N3CCN(C)CC3)c(F)cc3c(=O)c(C(=O)O)cn1c23` [Levofloxacin], the MIC [3] was 32 µg/mL, the MIC [4] was 256 µg/mL and the MIC [5] was 32 µg/mL.
